System: challenge pool of 7 bacteria: P. aeruginosa, E. aerogenes, E. coli, K. pneumonia, S. aureus, B. subtilis and S. enterica
Assay: ASTM D 2574 (modified) on pigment dispersions, split samples aged at room temperature / 3 weeks 60° C. / 6 weeks 60° C.
Assay type: cell-based
Method: ASTM D 2574: Standard Test for Resistance of Emulsion Paints in the Container to Attack by Microorganisms.
The test is conducted in accordance with the ASTM standard, except for the following modifications noted for the preparation of the inoculum and test procedure.
Preparation of Inoculum: There are 7 bacteria used in forming the challenge pool, they include: P. aeruginosa (ATCC #10145), E. aerogenes (ATCC #13048), E. coli (ATCC #10536), K. pneumonia (ATCC #10031), S. aureus (ATCC #6538), B. subtilis (ATCC #6051) and S. enterica (ATCC #13312). Bacterial cultures are prepared 24 hours before the test is scheduled to start by selecting one colony from a plate with a […], inoculating loop, adding it to 10 mL of sterile tryptic soy broth tubes and placing it on the shaking incubator. A 1 mL of each of the seven organisms is combined into a pool in a conical tube. A 1 mL of the created pool is then added to a 9 mL of sterile tryptic soy broth in a conical tube to get an inoculum concentration of ˜10^8 CFU/mL.
Test Procedure: A 1:100 dilution of the inoculum is added into each sample (ex. […], into 40 mL of sample) which provides a ˜10^6 CFU/mL challenge. The samples are then placed into 35° C. incubator for 24 hours to grow new organisms before each inoculation. The samples are inoculated on Days: 0, 2, 7 and 14. The samples are put back into incubator after each inoculation. […]

bismuth aluminate
effectiveness compared with isothiazolone antimicrobial agent (Table 4): at least as effective as the isothiazolone antimicrobial agent
preventing microbial growth (initial results): effective in preventing microbial growth
